Test [1] relates to superoxide dismutase (SOD). In words: Affinity ultrafiltration LC-MS/MS with SOD (relative binding affinity). Particulars: peaks of WUE-A4, SOD 2 U, 37 °C 1 h, n = 3. On the set-up: key: -: No binding affinity. The protocol:
(§1) The experimental conditions were proposed according to previous relevant studies. Briefly, the optimized experiment was composed of three steps. Incubation was the first step, where 100 μL WUE-A4 (10.0 mg/mL), 10 µL SOD (2 U) or XOD (2 U), and 90 µL Tris-HCl (pH = 7.8) were mixed well in 1.5 mL EP tubes, and then incubated at 37 °C in the dark for 1 h. Meanwhile, the incubation operations of inactivated enzymes (inactivated enzymes were obtained by heating enzymes in a 99 °C water bath for 10 min) were the same as the active enzymes. Adsorption was the second step, where the incubated solutions were transferred to ultrafiltration tubes with 30 KDa (for SOD) or 10 KDa (for XOD) ultrafiltration membranes and then centrifuged at 10,000 rpm for 10 min at 25 °C. Simultaneously, components which had no binding affinity to enzymes were washed out. Immediately, 300 µL of Tris-HCl solution (pH = 7.8) was added to the ultrafiltration tubes and centrifuged at 10,000 rpm for 5 min at 25 °C to remove the potential unbound components. Desorption was the third step, where 300 µL of 90% (v/v) MeOH-H2O was added and incubated for 10 min at room temperature, and the mixed solutions were centrifuged at 10,000 rpm for another 10 min at 25 °C. After that, the desorption process was repeated two times to release those components with specific bindings to SOD or XOD from the enzyme-ligand complexes. Finally, those ultrafiltrates were dried and reconstituted in 50 µL MeOH for the HPLC-UV/ESI-MS/MS analysis.
(§2) HPLC-UV/ESI-MS/MS was carried out to characterize the components in WUE-A4 before and after ultrafiltration by using a Thermo Accela 600 series HPLC connected with a TSQ Quantum Access MAX mass spectrometer (Thermo Fisher Scientific, San Jose, CA, USA). A Waters Symmetry RP-C18 column (4.6 × 250 mm, 5 µm) was used to perform chromatographic analysis at 30 °C, and the mobile phase consisted of H2O with 0.1% formic acid (A) and ACN (B). The optimized HPLC elution procedures were as follows: 0–15 min, 17% B; 15–40 min, 17–30% B, 40–42 min: 30–56% B. The flow rate was 0.8 mL/min, the injection volume was 10 µL, and the HPLC-UV chromatograms were detected at a wavelength of 254 nm. The negative ion modes were applied to obtained ESI-MS/MS data. Moreover, the parameters of instrument were set as follows: the vaporizer temperature was 350 °C, the capillary temperature was 250 °C, the spray voltage was 3000 V, the cone voltage energy was 40 V, the collision energy was 10 V, the sheath gas pressure was 40 psi, the aux gas pressure was 10 psi, the drying gas flow rate was 6.0 L/min, and the mass range was set from 50 to 1100 (m/z) in the full-scan mode. Finally, the Thermo Xcalibur ChemStation (Thermo Fisher Scientific) was used for data acquisition and analysis.
(§3) For further evaluation of the affinity binding strength between the potential ligands and the target enzymes, the relative binding affinity (RBA) was employed to compare the variation of the correlated peak areas in the UF-HPLC-UV chromatograms before and after activation. The RBA formula is expressed as RBA = Aactive/Ainactivated, where the Aactive and Ainactivated represent the peak areas obtained from the WUE-A4 samples with activated and inactivated SOD or XOD, respectively.

The test system of test [2] is xanthine oxidase (XOD). The test can be described thus: Affinity ultrafiltration LC-MS/MS with XOD (relative binding affinity). On the set-up: key: -: No binding affinity. The note with it: peaks of WUE-A4, XOD 2 U, 37 °C 1 h, n = 3. The procedure: as §1, §2, §3
The nature of test [3]: Ferric reducing antioxidant power (FRAP) assay. Particulars: for FRAP value: 37 °C, 10 min, 593 nm, n = 3. The protocol:
The ferric reducing antioxidant power assays on different extracts and pure compounds of stem barks from W. ugandensis were tested according to previous studies with slight modifications. Firstly, freshly prepared FRAP reagent (Fe^3+-TPTZ solution) was composed of FeCl3∙6H2O (20 mM in H2O), TPTZ (10 mM in 40 mM HCl), and acetate buffer (300 mM, pH = 3.6) at a ratio of 1:1:10 (v/v/v), then incubated at 37 °C after preparation, and used within 1–2 h. Secondly, 10 µL of appropriately diluted solution of samples was added to the 190 µL freshly prepared FRAP reagent in 96-well plate. Thirdly, the mixtures were gently shaken and put at 37 °C for 10 min. Finally, the absorbance was recorded at 593 nm with multifunctional microplate reader. Trolox was used as a positive control, and MeOH was used as blank control. Each of the samples and controls were tested in triplicate (n = 3). The antioxidant activities of FRAP were expressed as FRAP values and TEAC values. The FRAP values were calculated and expressed as millimoles of Fe^2+ equivalents per gram of sample (mmol Fe^2+/g) based on a calibration curve plotted using FeSO4∙7H2O as standard at a concentration ranging from 0.0185 to 1.5 mM.

Values joined by “and” are separate entries in the source; they are usually repeats but may differ in a detail not shown here. Identical values can stand only once. Marks after values point to notes of the source that are not given here.

Take “1-(3,4-dihydroxy-5-methoxyphenyl)-1,2-dihydroxy-7,8-dihydroxy-N-[(3,4-dihydroxyphenyl)-ethyl]-N′-[(4-hydroxyphenyl)-ethyl]-6-methoxynaphthalene-2,3-dicarboxamide [compound 11]”: the “UF-RBA SOD (relative binding affinity = Aactive/Ainactivated)” value was “-” in test [1] and “extremely low or no binding affinities” in test [1] (listed as peak 11). The “UF-RBA XOD (relative binding affinity = Aactive/Ainactivated)” value is on record as “-” in test [2] and “extremely low or no binding affinities” in test [2] (listed as peak 11). Further, the FRAP value in test [3] is 2.2 ± 0.1 ^c mmol Fe^2+/g.
In the case of `C[C@@H]1O[C@@H](O[C@@H]2[C@@H](O)[C@H](O)[C@@H](CO)O[C@H]2c2cc(-c3cc(=O)c4c(O)cc(O)cc4o3)cc(O)c2O)[C@H](O)[C@H](O)[C@H]1O` [compound 1, 2-[3-[2-O-(6-deoxy-α-L-mannopyranosyl)-β-D-glucopyranosyl]-4,5-dihydroxyphenyl]-5,7-dihydroxy-4H-1-benzopyran-4-one], the entries for the “UF-RBA SOD (relative binding affinity = Aactive/Ainactivated)” value in test [1] and in test [1] (listed as peak 1) were 1.9 ± 0.1 ^a,b,c and 1.93, respectively. For the same compound, the “UF-RBA XOD (relative binding affinity = Aactive/Ainactivated)” value in test [2] is on record as 1.2 ± 0.6 ^c,d. In addition, the FRAP value in test [3] was 5.4 ± 0.7 ^b mmol Fe^2+/g.
As for `O=C(/C=C/c1ccc(O)c(O)c1)NCCc1ccc(O)cc1` [compound 7, N-trans-caffeoyltyramine], in test [1], the “UF-RBA SOD (relative binding affinity = Aactive/Ainactivated)” value is 1.1 ± 0.3 ^e. In test [2], the “UF-RBA XOD (relative binding affinity = Aactive/Ainactivated)” value is 1.1 ± 0.3 ^c,d. Further, the FRAP value in test [3] is on record as 1.9 ± 0.1 ^c mmol Fe^2+/g.
In the case of `COc1cc(C2c3c(cc(OC)c(O)c3O)C=C(C(=O)NCCc3ccc(O)cc3)C2C(=O)NCCc2ccc(O)cc2)cc(O)c1O` (stereo not drawn) [compound 13], in test [1], the “UF-RBA SOD (relative binding affinity = Aactive/Ainactivated)” value is given as 1.3 ± 0.1 ^e. In addition, the “UF-RBA XOD (relative binding affinity = Aactive/Ainactivated)” value in test [2] is given as 1.3 ± 0.2 ^c,d. In addition, the FRAP value in test [3] is listed as 1.3 ± 0.2 ^c mmol Fe^2+/g.
On to `COc1cc(C2c3c(cc(O)c(O)c3OC)C=C(C(=O)NCCc3ccc(O)cc3)C2C(=O)NCCc2ccc(O)cc2)cc(O)c1O` (stereo not drawn) [compound 14], for which the figures for the “UF-RBA SOD (relative binding affinity = Aactive/Ainactivated)” value in test [1] and in test [1] (listed as peak 14) were 1.5 ± 0.1 ^c,d,e and 1.51, respectively. In addition, the “UF-RBA XOD (relative binding affinity = Aactive/Ainactivated)” value in test [2] was 3.8 ± 0.5 ^a; in test [2] (listed as peak 14) it was 3.76. Moreover, the “total ferric-reducing antioxidant power (FRAP)” value in test [3] came to 17.488 ± 1.625 mmol Fe^2+/g. Besides, the FRAP value in test [3] is 17.488 ± 1.625 mmol Fe^2+/g and 17.5 ± 1.6 ^a mmol Fe^2+/g.

For the origin of these results see PMC8001783, “New Lignanamides with Antioxidant and Anti-Inflammatory Activities Screened Out and Identified from Warburgia ugandensis Combining Affinity Ultrafiltration LC-MS with SOD and XOD Enzymes” (Antioxidants, 2021).
